Test results from patent publication US6525022B1, “Receptor specific atrial natriuretic peptides” (Genentech, Inc., priority 1993, dated 2003).
Where a SMILES comes first, the peptide text is derived from it. Bridges are numbered along the chain shown (N, C = ends).

Tests used:
hNPR-C [1] = molecular target: T1, hNPR-C (Homo sapiens, UniProt P17342); assay: Competitive binding to membranes from cells expressing human NPR-C; design: expressed in transfected cells; conditions: FIG. 19, in comparison to rat ANP
T1 sequence (P17342 27-541): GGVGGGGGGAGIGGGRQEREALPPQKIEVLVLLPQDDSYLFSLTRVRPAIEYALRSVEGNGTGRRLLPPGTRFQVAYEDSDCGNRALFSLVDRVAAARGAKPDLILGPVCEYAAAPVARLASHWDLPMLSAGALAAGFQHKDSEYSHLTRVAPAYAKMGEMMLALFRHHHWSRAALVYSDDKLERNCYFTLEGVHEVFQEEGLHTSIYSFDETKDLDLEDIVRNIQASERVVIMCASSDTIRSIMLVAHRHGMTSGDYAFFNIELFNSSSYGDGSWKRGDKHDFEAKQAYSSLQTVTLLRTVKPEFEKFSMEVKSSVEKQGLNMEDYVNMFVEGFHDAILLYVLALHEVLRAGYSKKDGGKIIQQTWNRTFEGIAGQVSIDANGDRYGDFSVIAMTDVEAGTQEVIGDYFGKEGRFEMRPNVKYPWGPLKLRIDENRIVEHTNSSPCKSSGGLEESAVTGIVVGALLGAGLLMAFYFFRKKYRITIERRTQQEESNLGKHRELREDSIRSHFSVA
Experimental: Membrane preparation. Stable cell lines expressing human NPR-A (Lowe and Fendly, J. Biol. Chem. 267:21691-21697 (1992)) or human NPR-C (Cunningham et al., EMBO J 13, 2508-2515 (1994)) were removed from cell culture dishes with 0.5 mM EDTA in phosphate buffered saline (PBS), placed in ice cold PBS and centrifuged at 228 g for 10 min at 4° C. The cell pellets were resuspended in ice-cold homogenization buffer (50 mM HEPES, 1 mM EDTA, 1 mM DTT, 0.25 M sucrose, 0.7 mg/mL pepstatin A, 0.5 mg/mL leupeptin and 1 mM PMSF, pH 7.4). The cells were then homogenized using a Brinkman polytron at setting 5 for 30 sec. The homogenate was centrifuged at 400×g for 10 min at 4° C. The supernatant was collected and centrifuged at 100,000×g for 30 min at 4° C. […] Protein concentrations was determined using the Biorad protein assay with IgG as a standard.
Membrane competition binding assays. […] The plates were washed six times with PBS, then air dried prior to adding scintillant and counted in a Packard Topcount scintillation counter for 1 min/well. Binding was measured in duplicate for each concentration of competitor.
Data analysis. The competition binding curves and cGMP production dose responses were analyzed by the four-parameter logistic equation with the KaleidaGraph™ program (Synergy Software, PA) to obtain estimates of the IC50 or EC50 values. […]

hNPR-A = molecular target: T2, hNPR-A (Homo sapiens, UniProt P16066); assay: Competition binding to hNPR-A (Table I, FIG. 5)
T2 sequence (P16066 33-1061): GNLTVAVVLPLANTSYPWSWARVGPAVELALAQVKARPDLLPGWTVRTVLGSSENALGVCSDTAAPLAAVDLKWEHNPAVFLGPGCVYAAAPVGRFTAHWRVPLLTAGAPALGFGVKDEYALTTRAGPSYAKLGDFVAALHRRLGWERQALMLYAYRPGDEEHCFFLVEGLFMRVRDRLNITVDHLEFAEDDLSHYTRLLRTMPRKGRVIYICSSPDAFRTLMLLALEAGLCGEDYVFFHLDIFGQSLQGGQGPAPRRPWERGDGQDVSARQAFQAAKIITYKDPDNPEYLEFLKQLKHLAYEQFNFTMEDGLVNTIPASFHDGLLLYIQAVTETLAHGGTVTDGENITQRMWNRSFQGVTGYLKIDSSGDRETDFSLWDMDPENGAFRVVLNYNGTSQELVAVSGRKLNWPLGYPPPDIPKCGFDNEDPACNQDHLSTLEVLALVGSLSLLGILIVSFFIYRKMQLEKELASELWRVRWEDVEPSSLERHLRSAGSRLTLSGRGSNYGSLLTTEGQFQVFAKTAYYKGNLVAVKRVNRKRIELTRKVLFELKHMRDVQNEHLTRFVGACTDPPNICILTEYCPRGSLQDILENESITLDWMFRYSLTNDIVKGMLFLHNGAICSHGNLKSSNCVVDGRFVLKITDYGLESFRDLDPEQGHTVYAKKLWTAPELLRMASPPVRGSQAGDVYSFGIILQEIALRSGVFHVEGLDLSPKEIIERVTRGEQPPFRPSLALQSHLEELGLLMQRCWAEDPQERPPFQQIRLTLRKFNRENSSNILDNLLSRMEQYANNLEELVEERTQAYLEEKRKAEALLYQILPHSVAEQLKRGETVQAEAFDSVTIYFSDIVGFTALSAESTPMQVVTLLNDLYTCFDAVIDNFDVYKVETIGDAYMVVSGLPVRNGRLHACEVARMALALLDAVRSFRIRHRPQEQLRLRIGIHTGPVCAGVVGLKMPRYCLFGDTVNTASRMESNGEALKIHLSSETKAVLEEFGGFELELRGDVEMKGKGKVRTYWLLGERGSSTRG

hNPR-C [2] = molecular target: T1, hNPR-C; assay: Competition binding to hNPR-C (Table I, FIG. 5)

For `CC[C@H](C)[C@@H]1NC(=O)[C@H](CCCNC(=N)N)NC(=O)[C@H](CC(=O)O)NC(=O)[C@H]([C@@H](C)CC)NC(=O)[C@H](CO)NC(=O)CNC(=O)[C@H]([C@@H](C)O)NC(=O)[C@H](Cc2ccccc2)NC(=O)[C@@H](NC(=O)[C@H](CO)NC(=O)[C@H](CO)NC(=O)[C@H](CCCNC(=N)N)NC(=O)[C@H](CCCNC(=N)N)NC(=O)[C@H](CC(C)C)NC(=O)[C@@H](N)CO)CSSC[C@@H](C(=O)N[C@@H](CC(N)=O)C(=O)N[C@@H](CO)C(=O)N[C@@H](Cc2ccccc2)C(=O)N[C@@H](CCCNC(=N)N)C(=O)N[C@@H](Cc2ccc(O)cc2)C(=O)O)NC(=O)CNC(=O)[C@H](CC(C)C)NC(=O)CNC(=O)[C@H](CO)NC(=O)[C@H](CCC(N)=O)NC(=O)[C@H](C)NC(=O)[C@H](CCCNC(=N)N)NC1=O` [ANF 27], the “Binding to human NPR-C membranes, competition for 125I-rat ANP” value (hNPR-C [1]) was “does not effectively bind”.
Compound `CC[C@H](C)[C@@H]1NC(=O)[C@H](CCCNC(=N)N)NC(=O)[C@H](CC(=O)O)NC(=O)[C@H]([C@@H](C)CC)NC(=O)[C@H](CO)NC(=O)CNC(=O)[C@H]([C@@H](C)O)NC(=O)[C@H](Cc2ccccc2)NC(=O)[C@@H](NC(=O)[C@H](CO)NC(=O)[C@H](CO)NC(=O)[C@H](CCCNC(=N)N)NC(=O)[C@H](CCCNC(=N)N)NC(=O)[C@H](CC(C)C)NC(=O)[C@H](CO)NC(=O)[C@H](CCCNC(=N)N)NC(=O)[C@@H]2CCCN2C(=O)[C@H](C)NC(=O)[C@@H](N)[C@@H](C)O)CSSC[C@@H](C(=O)N[C@@H](CC(N)=O)C(=O)N[C@@H](CO)C(=O)N[C@@H](Cc2ccccc2)C(=O)N[C@@H](CCCNC(=N)N)C(=O)N[C@@H](Cc2ccc(O)cc2)C(=O)O)NC(=O)CNC(=O)[C@H](CC(C)C)NC(=O)CNC(=O)[C@H](CO)NC(=O)[C@H](CCC(N)=O)NC(=O)[C@H](C)NC(=O)[C@H](CCCNC(=N)N)NC1=O` [ANF 76] (H-TAPRSLRRSSCFTGSIDRIRAQSGLGCNSFRY-OH; disulfide 11-27; C-terminus assumed) has an IC50 (hNPR-A) of 8.9 pM and an IC50 (hNPR-C [2]) of 10 µM.
